Source: paper PMC5838563, “Compounds producing an effective combinatorial regimen for disruption of HIV‐1 latency” (EMBO Molecular Medicine, 2017)

Assays:
[1] = system: replication‐competent HIV‐1 provirus in CD4^+ T cells from HIV‐1‐infected patients; assay: Quantitative viral outgrowth assay (qVOA); assay type: cell-based
Description: However, 1 nM PEP005 in combination with 1 μM PH02 produced a significant response that was double that produced by 1 μM PH02 on its own (Fig 10A). We confirmed this effect using a quantitative viral outgrowth assay (qVOA) with pools of CD4^+ T cells isolated from HIV‐1‐infected patient samples (Fig EV5, Appendix Table S5). […] We conclude that this combination of treatments may represent a promising candidate therapy to target persistent latent viral infection.
Figure EV5 Assay for reactivation of HIV‐1 from latently infected cells using a quantitative viral outgrowth assay Resting CD4^+ T cells from patient samples were serially diluted in 6‐ or 24‐well plates in duplicate (top) and treated as indicated (left). After 24 h, MOLT4/CCR5 cells were added to the wells, and the cultures incubated a further 14 days. HIV‐1 RNA was detected in filtered culture supernatants using RT–qPCR, and wells producing the specific PCR product are indicated in green. […]
For quantitative viral outgrowth assays (qVOA), serial dilutions of CD4^+ T lymphocytes from pooled HIV‐infected patients were plated in 6‐ or 24‐well plates (1 × 10^6 cells or < 1 × 10^6 cells, respectively). […] Viral RNA was isolated from the culture supernatants and analyzed as described above. […]

CD69 expression on PBMCs = assay: CD69 expression by flow cytometry on PBMCs from healthy donors; assay type: cell-based, human
Description: As discussed earlier, an ideal combination of latency‐reversing compounds would reverse HIV‐1 latency in a broad spectrum of infected cells, without causing global T‐cell activation. Accordingly, we examined the effects of PH02 and PEP005 on T‐cell activation and toxicity on primary cells (PBMCs) isolated from healthy donors. […] Consequently, we examined the effect of lower concentrations of PEP005, alone and in combination with PH02 on these primary cells. […] Based on these observations, we expected that 1 nM PEP005 in combination with PH02 should produce negligible toxicity, and have minimal effects on T‐cell activation, while being capable of causing significant reversal of HIV latency (Fig 4F, Appendix Fig S2B).
Figure 9 Effect of PH02 in combination with PEP005 on T‐cell activation Expression of CD69 on PBMCs from three healthy donors (A, B, C; n = 3) was measured by flow cytometry following 24‐h treatment with 3 μM of PH02 alone or in combination with the indicated concentration of PEP005. Positive control samples were treated with PMA. Statistical significance, as determined by one‐way ANOVA, is indicated: *P < 0.05; **P < 0.005; ***P < 0.0005; ****P < 0.00005; ns, no significant difference. The exact P‐values are indicated in Appendix Table S1.
Luciferase assays were performed in 96‐well plate format, where 100 μl of cell culture containing 1 × 10^5 luciferase reporter cells was plated per well. After the indicated time of treatment, 100 μl of luciferase assay reagent (SuperlightTM luciferase reporter Gene Assay Kit; BioAssay Systems) was added per well, and incubated for 2 min at RT, when luciferase activity was measured on a VictorTM X3 Multilabel Plate Reader. Results were presented relative to the positive control samples treated with 50 nM PMA. T‐cell activation was measured using 1 × 10^5 wild‐type Jurkat^Tat cells or PBMCs purified from healthy donors, treated as indicated. After 24 h, cells were incubated with 2.4G2 antibody to block nonspecific binding and further stained with 5 μl of anti‐human CD69 or an IgG1 isotype control antibody conjugated with PE‐Cy^Tm7. After 30‐min incubation on ice, the cells were washed twice with PBS and analyzed using a Becton Dickinson LSRII flow cytometer (BD Biosciences) to determine mean fluorescence intensity (MFI), using FlowJo software. The mean fluorescence intensity (MFI) obtained from cells stained with IgG isotype antibody control was subtracted from that from cells stained with CD69 to compensate for background (MFICD69‐MFIIgG). IL‐2 production was measured in cell culture supernatants using a human IL‐2 ELISA System (eBioscience). […]

[2] = 3 μM PH02 or 1 nM PEP005 alone, 24 h

Row | Structure (SMILES) | reactivation of virus ([1]; 1 nM PEP005 alone, 24 h) | CD69 induction (CD69 expression on PBMCs; [2]) | PEP005 concentration causing CD69 expression at levels similar to PMA (CD69 expression on PBMCs; alone and in combination with 3 μM PH02, 24 h) | virus replication ([1]; 1 μM PH02 + 1 nM PEP005, 24 h) | CD69 induction (CD69 expression on PBMCs; 3 μM PH02 + 1 nM PEP005, 24 h)
1 | C/C=C(/C)C(=O)O[C@H]1C(C)=C[C@]23C(=O)[C@@H](C=C(CO)[C@@H](O)[C@]12O)[C@H]1[C@@H](C[C@H]3C)C1(C)C [PEP005, ingenol‐3‐angelate, reference compound] | did not produce reactivation of virus | did not cause significant CD69 induction | higher than 1 nM | – | –
2 | CC(=O)Oc1ccccc1N(C=C1Sc2ccccc2C1=O)C(C)=O [PH02, 2‐{acetyl[(3‐oxo‐1‐benzothien‐2(3H)‐ylidene)methyl]amino}phenyl acetate] | – | did not cause significant CD69 induction | – | produced significant virus replication | did not cause significant CD69 induction
